Counter-ions that a name gives are not always drawn.
Molecular target: human recombinant LRRK2 protein (Homo sapiens, UniProt Q5S007)
Assay: LRRK2 kinase activity assay (ADP-Glo, LRRKtide peptide)
Format: biochemical
Conditions: human recombinant LRRK2 wt, LRRKtide peptide and ATP, 1 h at 37° C.
Description: The inhibition of LRRK2 kinase was assessed using human recombinant LRRK2 protein in an in vitro peptide-based kinase assay.
LRRK2 Kinase reactions were carried out in 384-well white polystyrene plates in a final volume of 6 μl using ADP-Glo™ Kinase Assay kit (Promega Corp.). Compound and substrates (LRRKtide peptide and ATP) in assay buffer were first dispensed in wells. Kinase reaction was then started by the addition of human recombinant LRRK2 protein. After 1 h-incubation at 37° C., the enzymatic reactions was stopped by the addition of 6 μl of ADP-Glo Reagent-1 and an additional 40-minutes incubation at 23° C. (residual ATP depletion). A final 30-minutes incubation after 12 μL reagent-2 addition (ADP to ATP conversion and luciferin/luciferase reaction) was performed before luminescent signal acquisition (EnVision™ multimode plate reader—PerkinElmer, Inc.). Data from 10 individual concentrations of tested compounds (N=2) were fitted (XLfit™—ID Business Solutions Ltd) to deliver IC50s (compound concentration leading to 50% inhibition of reference enzymatic activity).
The compounds are dissolved to 5 mM in DMSO. When needed, solutions are sonicated in a bath sonicator.
Table 2 provides the pIC50 values of the compounds according to the invention, obtained using the above mentioned kinase assay. Activities are represented as +++, ++ and +, having the following meanings: • «+++» means an IC50<10 nM • «++» means an IC50<100 nM • «+» means an IC50<1 μM • «−» means an IC50>1 μM

Sequence of human recombinant LRRK2 protein (Q5S007 whole entry): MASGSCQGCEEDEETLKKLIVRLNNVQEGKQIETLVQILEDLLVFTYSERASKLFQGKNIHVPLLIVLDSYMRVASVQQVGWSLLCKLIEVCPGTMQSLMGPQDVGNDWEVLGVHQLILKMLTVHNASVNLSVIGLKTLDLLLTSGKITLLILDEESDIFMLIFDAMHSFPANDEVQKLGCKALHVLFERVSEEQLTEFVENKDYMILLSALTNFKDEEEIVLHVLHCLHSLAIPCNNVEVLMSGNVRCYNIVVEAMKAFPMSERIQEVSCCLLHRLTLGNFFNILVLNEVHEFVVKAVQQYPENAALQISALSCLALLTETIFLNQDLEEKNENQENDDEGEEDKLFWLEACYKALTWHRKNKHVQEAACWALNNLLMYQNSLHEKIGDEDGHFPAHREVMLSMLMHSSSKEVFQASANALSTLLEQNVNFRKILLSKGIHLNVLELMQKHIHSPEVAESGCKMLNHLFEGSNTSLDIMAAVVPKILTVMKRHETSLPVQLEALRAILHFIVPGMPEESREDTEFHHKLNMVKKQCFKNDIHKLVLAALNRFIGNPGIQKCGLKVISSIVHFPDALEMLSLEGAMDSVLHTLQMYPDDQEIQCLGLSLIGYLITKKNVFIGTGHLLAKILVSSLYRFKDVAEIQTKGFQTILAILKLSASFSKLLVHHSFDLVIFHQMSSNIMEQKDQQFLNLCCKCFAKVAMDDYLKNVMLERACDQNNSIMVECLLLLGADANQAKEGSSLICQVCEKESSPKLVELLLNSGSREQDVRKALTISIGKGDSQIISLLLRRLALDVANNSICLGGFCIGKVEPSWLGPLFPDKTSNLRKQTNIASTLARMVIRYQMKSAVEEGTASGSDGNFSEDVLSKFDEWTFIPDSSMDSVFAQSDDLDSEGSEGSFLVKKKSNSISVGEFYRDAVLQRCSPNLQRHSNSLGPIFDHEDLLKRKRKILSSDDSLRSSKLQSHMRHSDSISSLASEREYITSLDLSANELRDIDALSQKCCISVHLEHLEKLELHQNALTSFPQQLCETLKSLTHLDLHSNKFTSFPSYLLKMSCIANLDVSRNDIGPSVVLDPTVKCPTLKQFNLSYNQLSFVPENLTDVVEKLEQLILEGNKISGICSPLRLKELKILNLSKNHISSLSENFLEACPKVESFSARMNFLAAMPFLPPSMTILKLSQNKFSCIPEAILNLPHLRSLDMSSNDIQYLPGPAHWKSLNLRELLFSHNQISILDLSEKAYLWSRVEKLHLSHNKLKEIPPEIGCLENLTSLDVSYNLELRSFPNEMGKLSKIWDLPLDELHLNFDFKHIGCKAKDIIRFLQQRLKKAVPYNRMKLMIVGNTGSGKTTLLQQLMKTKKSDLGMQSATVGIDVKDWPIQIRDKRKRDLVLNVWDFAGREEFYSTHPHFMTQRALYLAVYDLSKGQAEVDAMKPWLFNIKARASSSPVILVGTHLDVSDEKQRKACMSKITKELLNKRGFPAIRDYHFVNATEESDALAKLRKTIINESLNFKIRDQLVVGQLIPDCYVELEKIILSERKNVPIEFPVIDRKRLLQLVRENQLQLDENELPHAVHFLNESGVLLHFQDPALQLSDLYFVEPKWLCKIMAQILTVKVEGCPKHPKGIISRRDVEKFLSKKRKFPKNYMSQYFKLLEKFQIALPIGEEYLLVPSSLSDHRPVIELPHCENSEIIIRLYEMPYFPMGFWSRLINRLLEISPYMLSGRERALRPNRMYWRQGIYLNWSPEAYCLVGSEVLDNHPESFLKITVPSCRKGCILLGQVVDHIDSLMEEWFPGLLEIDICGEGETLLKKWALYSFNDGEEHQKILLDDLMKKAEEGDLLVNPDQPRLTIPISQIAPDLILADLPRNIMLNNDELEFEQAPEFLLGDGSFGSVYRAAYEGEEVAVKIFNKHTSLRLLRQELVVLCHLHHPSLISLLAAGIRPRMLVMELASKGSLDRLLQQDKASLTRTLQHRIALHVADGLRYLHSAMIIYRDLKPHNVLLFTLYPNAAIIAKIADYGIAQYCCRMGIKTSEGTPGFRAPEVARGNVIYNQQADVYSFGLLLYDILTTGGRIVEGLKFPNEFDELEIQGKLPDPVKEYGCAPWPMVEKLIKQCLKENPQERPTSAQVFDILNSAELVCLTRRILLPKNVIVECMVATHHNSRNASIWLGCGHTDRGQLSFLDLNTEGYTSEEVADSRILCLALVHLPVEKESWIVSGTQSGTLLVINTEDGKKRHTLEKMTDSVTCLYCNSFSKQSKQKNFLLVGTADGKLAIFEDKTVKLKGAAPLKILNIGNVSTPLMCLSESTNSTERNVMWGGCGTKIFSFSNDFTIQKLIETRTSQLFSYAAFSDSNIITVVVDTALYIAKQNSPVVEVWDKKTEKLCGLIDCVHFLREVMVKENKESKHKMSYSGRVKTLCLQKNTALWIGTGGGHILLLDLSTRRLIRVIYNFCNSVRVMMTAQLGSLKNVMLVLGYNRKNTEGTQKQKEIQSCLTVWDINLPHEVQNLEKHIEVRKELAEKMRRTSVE

| IC50 [nM] | SMILES |
| --- | --- |
| < 100 | C[C@@H]1COCC[C@H](C)Oc2cncc(c2)-c2n[nH]c3ccc(cc23)O1 [Example 11, (8S,13R)-8,13-dimethyl-7,11,14-trioxa-4,19,20-triazatetracyclo[13.5.2.1^2,6.0^18,21]tricosa-1(20),2(23),3,5,15(22),16,18(21)-heptaene] |
| < 100 | C[C@H]1CCOC[C@H](C)Oc2ccc3[nH]nc(c3c2)-c2cncc(c2)O1 [Example 12, (8S,13S)-8,13-dimethyl-7,11,14-trioxa-4,19,20-triazatetracyclo[13.5.2.1^2,6.0^18,21]tricosa-1(20),2(23),3,5,15(22),16,18(21)-heptaene] |
| < 100 | C[C@@H]1COCCO[C@H](C)c2cncc(c2)-c2n[nH]c3ccc(cc23)O1 [Example 13, (7R,13R)-7,13-dimethyl-8,11,14-trioxa-4,19,20-triazatetracyclo[13.5.2.1^2,6. 0^18,21]tricosa-1(20),2(23),3,5,15(22),16,18(21)-heptaene hydrochloride] |
| < 100 | C[C@@H]1COCCO[C@@H](C)c2cncc(c2)-c2n[nH]c3ccc(cc23)O1 [Example 14, (7S,13R)-7,13-dimethyl-8,11,14-trioxa-4,19,20-triazatetracyclo[13.5.2.1^2,6. 0^18,21]tricosa-1(20),2(23),3,5,15(22),16,18(21)-heptaene hydrochloride] |
| < 10 | C[C@H]1CCOCCCOc2ccc3[nH]nc(c3c2)-c2cnn1c2 [Example 15, (6S)-6-methyl-9,13-dioxa-4,5,18,19-tetraazatetracyclo[12.5.2.1^2,5.0^17,20] docosa-1(19),2(22),3,14(21),15,17(20)-hexaene] |
| < 10 | C[C@H]1CCOCCOc2nccc(n2)-c2n[nH]c3ccc(cc23)O1 [Example 16, (13S)-13-methyl-7,10,14-trioxa-5,19,20,23-tetraazatetracyclo[13.5.2.1^2,6. 0^18,21]tricosa-1(20),2(23),3,5,15(22),16,18(21)-heptaene] |
| < 10 | C[C@@H]1CCOC[C@@H](C)Oc2ccc3[nH]nc(c3c2)-c2cncc(c2)O1 [Example 17, (8R,13R)-8,13-dimethyl-7,11,14-trioxa-4,19,20-triazatetracyclo[13.5.2.1^2,6. 0^18,21]tricosa-1(20),2(23),3,5,15(22),16,18(21)-heptaene] |
| < 10 | C[C@@H]1CCOC[C@H](C)Oc2ccc3[nH]nc(c3c2)-c2cncc(c2)O1 [Example 18, (8R,13S)-8,13-dimethyl-7,11,14-trioxa-4,19,20-triazatetracyclo[13.5.2.1^2,6. 0^18,21]tricosa-1(20),2(23),3,5,15(22),16,18(21)-heptaene] |
| < 10 | C[C@H]1COCCCOc2nc(cc(N3CCCC3)n2)-c2n[nH]c3ccc(cc23)O1 [Example 19, (13S)-13-methyl-4-(pyrrolidin-1-yl)-7,11,14-trioxa-5,19,20,23-tetraazatetra cyclo[13.5.2.1^2,6.0^18,21]tricosa-1(20),2(23),3,5,15(22),16,18(21)heptaene] |
| < 100 | C[C@H]1CCOC[C@H](C)Oc2cncc(c2)-c2n[nH]c3ccc(cc23)O1 [Example 20, (8S,13S)-8,13-dimethyl-7,10,14-trioxa-4,19,20-triazatetracyclo[13.5.2.1^2,6. 0^18,21]tricosa-1(20),2(23),3,5,15(22),16,18(21)-heptaene] |
| < 10 | C[C@@H]1COCC[C@H](C)Oc2ccc3[nH]nc(c3c2)-c2cncc(c2)O1 [Example 21, (8R,13S)-8,13-dimethyl-7,10,14-trioxa-4,19,20-triazatetracyclo[13.5.2.1^2,6.0^18,21]tricosa-1(20),2(23),3,5,15(22),16,18(21)-heptaene] |
| < 10 | C[C@@H]1CCOC[C@H](C)Oc2cncc(c2)-c2n[nH]c3ccc(cc23)O1 [Example 22, (8S,13R)-8,13-dimethyl-7,10,14-trioxa-4,19,20-triazatetracyclo[13.5.2.1^2,6.0^18,21]tricosa-1(20),2(23),3,5,15(22),16,18(21)-heptaene] |
| < 10 | C[C@@H]1CCOC[C@@H](C)Oc2cncc(c2)-c2n[nH]c3ccc(cc23)O1 [Example 23, (8R,13R)-8,13-dimethyl-7,10,14-trioxa-4,19,20-triazatetracyclo[13.5.2.1^2,6.0^18,21]tricosa-1(20),2(23),3,5,15(22),16,18(21)-heptaene] |
| < 10 | C[C@H]1COCCOCCn2cc(cn2)-c2n[nH]c3ccc(cc23)O1 [Example 24, (13S)-13-methyl-8,11,14-trioxa-4,5,19,20-tetraazatetracyclo[13.5.2.1^2,5.0^18,21]tricosa-1(20),2(23),3,15(22),16,18(21)-hexaene] |
| < 100 | C[C@@H]1CCOCC[C@H](C)Oc2ccc3[nH]nc(c3c2)-c2cnn1c2 [Example 25, (6R,12S)-6,12-dimethyl-9,13-dioxa-4,5,18,19-tetraazatetracyclo[12.5.2.1^2,5.0^17,20]docosa-1(19),2(22),3,14(21),15,17(20)-hexaene] |
| < 10 | C[C@H]1COCCCOc2nccc(n2)-c2n[nH]c3ccc(cc23)O1 [Example 26, (13S)-13-methyl-7,11,14-trioxa-5,19,20,23-tetraazatetracyclo[13.5.2.1^2,6.0^18,21]tricosa-1(20),2(23),3,5,15(22),16,18(21)-heptaene] |
| < 10 | COC1CN(c2cc3nc(n2)OCCCOC[C@H](C)Oc2ccc4[nH]nc-3c4c2)C1 [Example 27, (13S)-4-(3-methoxyazetidin-1-yl)-13-methyl-7,11,14-trioxa-5,19,20,23-tetra azatetracyclo[13.5.2.1^2,6.0^18,21]tricosa-1(20),2(23),3,5,15(22),16,18(21) heptaene] |
| < 10 | C[C@H]1CCOCCOc2cccc(n2)-c2n[nH]c3ccc(cc23)O1 [Example 28, (13S)-13-methyl-7,10,14-trioxa-19,20,23-triazatetracyclo [13.5.2.1^2,6.0^18,21] tricosa-1(20),2(23),3,5,15(22),16,18(21)-heptaene] |
| < 10 | Cc1cc2nc(n1)OCCCOC[C@H](C)Oc1ccc3[nH]nc-2c3c1 [Example 29, (13S)-4,13-dimethyl-7,11,14-trioxa-5,19,20,23-tetraazatetracyclo[13.5.2.1^2,6.0^18,21]tricosa-1(20),2(23),3,5,15(22),16,18(21)-heptaene] |
| < 100 | C[C@H]1CCOCCOc2nccc(n2)-c2n[nH]c3ccc(cc23)N1 [Example 30, (13S)-13-methyl-7,10-dioxa-5,14,19,20,23-pentaazatetracyclo[13.5.2.1^2,6.0^18,21]tricosa-1(20),2(23),3,5,15(22),16,18(21)-heptaene] |
| < 10 | CC1(C)COCCCOc2ccc3[nH]nc(c3c2)-c2cnn(c2)C1 [Example 31, 7,7-dimethyl-9,13-dioxa-4,5,18,19-tetraazatetracyclo[12.5.2.1^2,5.0^17,20] docosa-1(19),2(22),3,14(21),15,17(20)-hexaene] |
| < 10 | C[C@H]1CCOCCCn2cc(cn2)-c2n[nH]c3ccc(cc23)O1 [Example 32, (12S)-12-methyl-9,13-dioxa-4,5,18,19-tetraazatetracyclo[12.5.2.1^2,5.0^17,20] docosa-1(19),2(22),3,14(21),15,17(20)-hexaene] |
| < 100 | C[C@@H]1COCC[C@H](C)Oc2ccc3[nH]nc(c3c2)-c2cccc(n2)O1 [Example 33, (8R,13S)-8,13-dimethyl-7,10,14-trioxa-19,20,23-triazatetracyclo[13.5.2.1^2,6.0^18,21]tricosa-1(20),2(23),3,5,15(22),16,18(21)-heptaene] |
| < 10 | COC1CN(c2cc3nc(n2)OCCOCC[C@H](C)Nc2ccc4[nH]nc-3c4c2)C1 [Example 34, (13S)-4-(3-methoxyazetidin-1-yl)-13-methyl-7,10-dioxa-5,14,19,20,23-pentaazatetracyclo[13.5.2.1^2,6.0^18,21]tricosa-1(20),2,4,6(23),15(22),16, 18(21)-heptaene] |
| < 10 | C[C@@H]1CCOCC[C@@H](C)n2cc(cn2)-c2n[nH]c3ccc(cc23)O1 [Example 35, (6R,12R)-6,12-dimethyl-9,13-dioxa-4,5,18,19-tetraazatetracyclo[12.5.2.1^2,5.0^17,20]docosa-1(19),2(22),3,14(21),15,17(20)-hexaene] |
| < 10 | C[C@@H]1CCOCC[C@H](C)n2cc(cn2)-c2n[nH]c3ccc(cc23)O1 [Example 36, (6S,12R)-6,12-dimethyl-9,13-dioxa-4,5,18,19-tetraazatetracyclo[12.5.2.1^2,5.0^17,20]docosa-1(19),2(22),3,14(21),15,17(20)-hexaene] |
| < 10 | C[C@H]1CCn2cc(cn2)-c2n[nH]c3ccc(cc23)OCCCO1 [Example 37, (8S)-8-Methyl-9,13-dioxa-4,5,18,19-tetraazatetracyclo[12.5.2.1^2,5.0^17,20] docosa-1(19),2(22),3,14(21),15,17(20)-hexaene] |
| < 10 | C[C@H]1CCOCC[C@H](C)n2cc(cn2)-c2n[nH]c3ccc(cc23)O1 [Example 38, (6S,12S)-6,12-dimethyl-9,13-dioxa-4,5,18,19-tetraazatetracyclo [12.5.2.1^2,5.0^17,20]docosa-1(19),2(22),3,14(21),15,17(20)-hexaene] |

— patent US20240246992A1, “MACROCYCLIC LRRK2 KINASE INHIBITORS” (LES LABORATOIRES SERVIER, priority 2021, published 2024)
